These are literature values, as cited in US20060275513A1, “Diet supplement for burning additional calories, providing sustained energy, supporting weight loss, and/or improving mental focus” (priority 2005, published 2006).

For this data set the following is noted: non-extended release format.

In the case of `Cn1c(=O)c2c(ncn2C)n(C)c1=O` [Caffeine], the accepted half-life was 3.5 to 5 h.
